{
  "source": "paper PMC9171646",
  "about": "(Proceedings of the National Academy of Sciences of the …, 2022)",
  "key": {"[1]": {"tested_on": "EF-G-bound translocating 70S ribosome", "test": "Presteady-state smFRET imaging of translocation", "type": "biochemical, E. coli", "details": "for Final state after prolonged stalling: 400 ms time resolution, extended imaging (Fig. S4A); for Effect on translocation: EF-G(GTP) delivered with 10 µM drug to PRE ribosomes, 25 °C; for Affinity for ribosome-bound EF-G vs EF-G in solution: inferred from smFRET with EF-G in excess"}, "EF-G(GDP)-ribosome INT2": {"tested_on": "EF-G(GDP)-ribosome INT2", "details": "cited from earlier work"}, "EF-G": {"tested_on": "EF-G", "details": "cited from earlier work"}, "eEF2": {"tested_on": "eEF2", "details": "cited from earlier work"}, "[2]": {"tested_on": "E. coli EF-G-70S ribosome", "test": "Cryo-EM structure of EF-G-ArgB-70S complex", "type": "binding"}, "[3]": {"tested_on": "EF-G-ribosome translocation intermediate (INT2)", "test": "Presteady-state cryo-EM structure of EF-G-ArgB-INT2 translocation intermediate", "type": "binding, E. coli"}, "P. aeruginosa EF-G1": {"tested_on": "P. aeruginosa EF-G1", "details": "cited from earlier work"}, "Pseudomonas aeruginosa": {"tested_on": "Pseudomonas aeruginosa", "details": "cited from earlier work"}, "[4]": {"tested_on": "EF-G from P. aeruginosa (EF-G1)", "details": "free P. aeruginosa EF-G1; cited from earlier work"}},
  "note": "“Also recorded” adds a separate entry of the source.",
  "data": [
    {"molecule": "CC(=O)O[C@H]1C[C@@]2(C)[C@@H](C[C@@H](O)[C@H]3[C@@]4(C)CC[C@@H](O)[C@@H](C)[C@@H]4CC[C@@]32C)/C1=C(\\CCC=C(C)C)C(=O)O", "note": "[FA, fusidic acid, reference compound]", "values": [
      {"measurement": "Final state after prolonged stalling", "setting": "[1]", "value": "eventually reached an EF-G-bound drug-stalled POST state after prolonged stalling"},
      {"measurement": "Effect on translocation", "setting": "[1]", "value": "prolonged stalls during late steps of translocation"},
      {"measurement": "Binding site on EF-G", "setting": "EF-G(GDP)-ribosome INT2", "value": "between domains I and III"},
      {"measurement": "Resistance by EF-G mutations", "setting": "EF-G", "value": "mutations in EF-G have been reported to confer FA resistance"}
    ]},
    {"molecule": "CO[C@H]1[C@@H](O)[C@H](O)[C@H](OC[C@@]23C[C@@H]4[C@H](C)CC[C@H]4[C@@]4(C=O)CC2C=C(C(C)C)[C@@]34C(=O)O)O[C@@H]1C", "note": "[Sordarin]", "values": [
      {"measurement": "Binding site on eEF2", "setting": "eEF2", "value": "binds between domains III and V of eEF2"}
    ]},
    {"molecule": "argyrin B [ArgB]", "values": [
      {"measurement": "Final state after prolonged stalling", "setting": "[1]", "value": "eventually reached an EF-G-bound drug-stalled POST state after prolonged stalling"},
      {"measurement": "Inhibition of ribosomes with EF-G in excess", "setting": "[1]; EF-G in fivefold excess over ArgB (10 µM ArgB, 50 µM EF-G)", "value": "all ribosomes were inhibited"},
      {"measurement": "Effect on translocation", "setting": "[1]", "value": "prolonged stalls during late steps of translocation"},
      {"measurement": "Affinity for ribosome-bound EF-G vs EF-G in solution", "setting": "[1]", "value": "preferentially binds with high affinity to EF-G when it is bound to the ribosome; also recorded: lower affinity for EF-G in solution than on the ribosome"},
      {"measurement": "Affinity for ribosome-bound EF-G vs EF-G in solution", "setting": "[1]; listed as Argyrin B", "value": "low affinity toward EF-G off the ribosome, but high affinity to EF-G bound to the ribosome"},
      {"measurement": "Binding site on EF-G", "setting": "[2]; 50 µM ArgB, 0.4 µM 70S, 1 µM EF-G, 500 µM GTP", "value": "between domain III and V of EF-G"},
      {"measurement": "State in which EF-G is trapped", "setting": "[2]; nucleotide density compatible with GDP, switch-I disordered", "value": "traps EF-G on the ribosome after GTP hydrolysis and Pi release"},
      {"measurement": "Binding site on EF-G in translocation intermediate", "setting": "[3]; 10 µM ArgB, 5 µM EF-G, 1 mM GTP", "value": "in the junction between EF-G domains III and V"},
      {"measurement": "Contacts of ArgB in EF-G binding pocket", "setting": "[3]; EF-G-ArgB-INT2, E. coli numbering", "value": "van der Waals interactions with Met617, Leu660, and Met682 within domain V of EF-G and the backbone amide of Ala489 of EF-G was positioned within hydrogen bonding distance to the Sarcosine moiety"},
      {"measurement": "Resistance by mutation of Pro414", "setting": "P. aeruginosa EF-G1; ArgB-resistant strains", "value": "commonly mutated in ArgB-resistant strains"},
      {"measurement": "Resistance by Thr671Ala (E. coli Thr668)", "setting": "P. aeruginosa EF-G1; P. aeruginosa EF-G1 domain V", "value": "resistance to ArgB"},
      {"measurement": "Antimicrobial activity against P. aeruginosa", "setting": "Pseudomonas aeruginosa", "value": "at the forefront"},
      {"measurement": "Direct binding to EF-G1, binding site", "setting": "[4]", "value": "bind directly to EF-G from P. aeruginosa (EF-G1) with the binding site located between domains III and V"}
    ]}
  ]
}
